Measured values: ChEMBL document CHEMBL3507680, “University of Dundee, Gates Library screen for HepG2 cell viability”

assay: Human HepG2 cell viability assay in 384 well format; type: toxicity, cell-based; parameters: dose 125 nL, time 70.5 hour; concentration not given beside the values; settings: HepG2 cells, read-out: Inhibition

SMILES	cytotoxicity at 70.5 h [%]
O=C(CS(=O)(=O)Cc1cc(Cl)c2c(c1)OCO2)N1CCCCCC1	-2.51
COc1cccc(S(=O)(=O)N2CCCc3c(OC)nn(C)c3C2)c1	-5.16
CC/N=c1\nc(NCC)nc2n1C(O)(Nc1cc(Cl)ccc1Cl)CS2 (stereo not drawn)	17.8
CCCS(=O)(=O)NCc1ncc(C)c(OC)c1C	9.44
Cc1nn(C)c(C)c1C(C(=O)O)N1CC=C(c2ccccc2)CC1 (stereo not drawn)	10.9
CC(CNC(=O)c1cc(Cl)ccc1F)N1CCCC1 (stereo not drawn)	-13.5
Cc1cc(C(=O)N2Cc3ccccc3OC3(CCOCC3)C2)nc(N)n1	-4.81
Cc1cnccc1N1CCCN(C(=O)CCCn2ccnc2C)CC1	-6.13
Cc1nc(N)sc1C(=O)N1CCCC(COc2ccc(F)cc2)C1 (stereo not drawn)	-0.394
COCCC(=O)N1CCOCC(Cc2ccc3c(ccn3C)c2)C1 (stereo not drawn)	-6.26
CNC(=O)[C@H]1CO[C@H]2CCN(c3ncc(F)cn3)C[C@H]2C1	-8.64
Cc1ccc(CN2CC[C@@H](O)[C@@H]2Cc2ccccc2)o1	34
c1ccc(OCCN2CCCCC2Cn2cncn2)cc1 (stereo not drawn)	23.7
Cc1noc(-c2cnc(NC3CC3)nc2-c2ccco2)c1C	-14.9
Cc1cc(C(=O)N2CCN(S(C)(=O)=O)[C@@H](C)C2)c(F)cc1F	-97.9
Cc1ccccc1CC(=O)N1C[C@H]2CC[C@@H]1CN(Cc1cccnc1)C2	-4.12
CCOC(=O)CCNC(=O)c1cccc2ccc(C)nc12	0.845
c1csc(N2[C@H](Cn3cncn3)C[C@@H]3CNCC[C@@H]32)n1	10.2
COC[C@]12COC[C@H]1CN(Cc1ccc3c(c1)OCO3)C2	-6.87
CN(C)CCCNC(=O)c1cc(Br)c2c(c1)OCCO2	-7.25
CC(=O)N1CCC(C(=O)NC2CCc3nccn3C2)CC1 (stereo not drawn)	-97.6
CC(C)CC(CCO)CNC(=O)N1CCOC2(CCCC2)C1 (stereo not drawn)	-1.95
CCC(=O)NCCNC(=O)c1nn(C)c(C)c1Cl	-11.9

SMILES	cytotoxicity at 70.5 h [%]
O=c1oc(-c2cccs2)nn1CC(O)c1ccc(F)cc1 (stereo not drawn)	-11.2
Cc1nnsc1C(=O)N(C)Cc1nc(-c2ccccn2)no1	-2.75
c1ccc(CN2CCc3ncnc(C4CC4)c3CC2)cc1	26.7
N#Cc1ccc(NC2CCN(Cc3ccccn3)CC2)c(F)c1	-9.28
COCCNC(=O)CSc1nnc(OC(C)C)s1	-10.2
CC(C)(C)OC(=O)N1CCN(C(=O)c2cnn3c2OCCC3)CC1	-0.601
Cc1cc(CN(C)C2CCCN(Cc3noc(C)n3)C2)no1 (stereo not drawn)	7.31
CN(Cc1noc(C2CC2)n1)C1CCCN(c2cccnn2)C1 (stereo not drawn)	0.945
CO[C@H]1CN(C(C)C)C[C@@H]1NC(=O)c1cc(COc2ccccc2)[nH]n1	-3.71
COC(C)(C)CNC(=O)N(C)Cc1nc(-c2ccccc2)c[nH]1	24.9
CCCc1cc(C(=O)NCCCn2nnc3ccccc32)no1	-6.64
COC1CCCOC12CCN(C(=O)NCCc1cccs1)CC2 (stereo not drawn)	-0.941
COc1cccc(OCC(=O)N(C)c2cccnc2)c1	24
Cc1ccoc1C(=O)N1CCCC2(CCCN2S(C)(=O)=O)C1 (stereo not drawn)	-3.55
CCOc1cc(F)ccc1NC(=O)N(C(C)CS(C)(=O)=O)C1CC1 (stereo not drawn)	-4.36
COc1ccccc1CN1C(=O)O[C@@H]2CN(Cc3cccc(C)n3)C[C@@H]21	20.9
Cc1cccc(CNC(=O)c2cccnc2N)c1	18
CSCC(=O)N1CCC(c2nccn2Cc2cscn2)CC1	-2.59
Cc1cnn(CC2CCCCN2CC(=O)Nc2cccnc2)c1 (stereo not drawn)	0.635
Cc1csc(CN2CC[C@H]3C[C@H](c4nc(C)no4)O[C@@H]3C2)n1	-10.4
CNC(=O)c1ccc(NC2CCN(CC(F)(F)F)C2=O)cc1Cl (stereo not drawn)	-7.41
NC(=O)N1CCCN(C(=O)Nc2cc(-n3cccc3)ccc2F)CC1	-6.12
CN1[C@H](Cn2cncn2)C[C@@H]2CN(C3CCOCC3)CC[C@@H]21	0.159

SMILES	cytotoxicity at 70.5 h [%]
Fc1cccnc1OC[C@@]12CCO[C@@H]1CCN(CC1CCOCC1)C2	-9.65
O=C(CN1C(=O)CCC1=O)N1CCOCC1	48.6
CC(C)NC(=O)CC1COC2(CCN(Cc3ccsc3)CC2)C1 (stereo not drawn)	-9.99
CNC(=O)c1cc(C)ccc1NCc1cn2cc(C)ccc2n1	-2.87
O=C1CNc2ncnc(Nc3cnn(Cc4ccc(F)cc4)c3)c2N1	-12.2
CC(CN1CCOCC1)NC(=O)c1cc(Cl)c2c(c1)OCO2 (stereo not drawn)	2.56
CN(Cc1cnn(C)c1)C(=O)c1ccc(=O)n(Cc2ccccc2)n1	27.5
CCn1cc(C(=O)NCC(C)(CC)N2CCOCC2)c2ccccc21 (stereo not drawn)	5.27
OCC1CCCCN1CCn1ccnc1-c1nc2ccccc2[nH]1 (stereo not drawn)	-2.11
Cn1nnc2c1C(COCC1CC1)CN(C(=O)C1=CCCC1)C2 (stereo not drawn)	-9.91
Cc1cc(C)c(CNC(=O)NCc2ccc3c(c2)CCC3)c(=O)[nH]1	-10.5
COc1nccnc1N1CCCC2(C1)C(=O)N(C)c1ccccc12 (stereo not drawn)	-12.3
Clc1cccc(CNC2CCN(CCc3ccncc3)CC2)c1	0.526
CS(=O)(=O)NC1CCN(C(=O)NCCc2ccccc2F)CC1	-5.64
CC(=O)N1CCN([C@@H]2CN(C(=O)c3ccccc3)C[C@H]2O)CC1	-5.08
COc1cc(Oc2cnc3ccccc3n2)ccc1CN1CCCC1	-3.39
N#Cc1ccc2c(c1)CN(C(=O)C1CC=CC1)C2c1cnco1 (stereo not drawn)	-6.37
CC(=O)N1CCOC2(CCN(C(=O)C3CC3)CC2)C1	-10.3
Cc1cccc(CN2CCC(C3Nc4ccccc4S(=O)(=O)N3)CC2)n1 (stereo not drawn)	-2.6
OC(COCc1ccccc1)CN1CCC(Cn2cccn2)CC1 (stereo not drawn)	-22.4
CN(C)C(=O)N1CCN(Cc2cnn(C)c2)CC2(CNC(=O)C2)C1 (stereo not drawn)	-7.42
CCCN1CCC2(C1)c1ccccc1S(=O)(=O)N2Cc1ccc(F)cc1 (stereo not drawn)	-1.79
CCn1ccnc1CN1CCN(CC(O)c2ccccc2)CC1 (stereo not drawn)	-15.4

SMILES	cytotoxicity at 70.5 h [%]
CNS(=O)(=O)CCNC(=O)c1coc(COc2ccc(F)cc2)n1	-4.33
Cc1cc(C(=O)N2CCC3(CC2)COCCN(c2cccnc2)C3)[nH]n1	-3.67
N#Cc1ccc(N2CCCC2Cn2cncn2)nc1 (stereo not drawn)	-6.25
COCCN1C(=O)[C@]2(CC[C@@H]3CN(C(=O)NC4CCCC4)C[C@@H]32)N=C1C	-14.1
Cc1cnn(CC2CCCN2CCCS(=O)(=O)N(C)C)c1 (stereo not drawn)	2.72
CCN1CCCC1CNCc1cc2cc(OC)c(OC)cc2[nH]c1=O (stereo not drawn)	-1.47
Cc1ccc(F)c2c1CCCN2C(=O)Cc1c(C)nn(C)c1C	-5.29
Cc1csc(CCNc2ccc(C#N)cn2)n1	-11.4
Cc1cnn(CC2CCCN2Cc2cc(C)on2)c1 (stereo not drawn)	-4.61
CC(=O)c1cccc(OCCCC(=O)N(C)Cc2cnc(C)s2)c1	-6.22
COc1ccc2ccccc2c1CNCC1CCS(=O)(=O)C1 (stereo not drawn)	-8.26
c1cc(-c2c[nH]c([C@@H]3COCCN3C3CCCCC3)n2)ccn1	0.143
O=C(C(c1ccccc1)N1CCc2cncnc2C1)N1CCCCC1 (stereo not drawn)	7.48
Cc1noc([C@@]23CCO[C@@H]2CCN(CC2CCOCC2)C3)n1	-5.71
COCCNC(=O)CN1CCN(c2nc(C)cs2)CC1	-3.26
c1ccc(CNCC2Cn3nncc3CO2)nc1 (stereo not drawn)	-7.76
CCc1ccc(CN2CCC3(CC2)NC(=O)CC3c2ccncc2)o1 (stereo not drawn)	-23
OC1(CN2CCC(Cc3ncccn3)CC2)CCCCC1	-5.56
COc1ccc(CN(C)c2nc3c(cnn3C)c(=O)[nH]2)c(OC)c1	18.3
O=C(c1cnccn1)N1CCN2C[C@H](OCc3ccccc3F)C[C@H]2C1	-6.71
Cc1cc(NCc2ccccc2CN2CCCCC2)n2ncnc2n1	-10.1
c1c(CN2CCCC2)nc2n1CCN(C1CCOCC1)C2	-0.565
CN(Cc1ccncc1)C1COC2(CCN(Cc3ccsc3)CC2)C1 (stereo not drawn)	-15.1

SMILES	cytotoxicity at 70.5 h [%]
Cc1nc(C)n(CC2CCCCN2Cc2nc3ccccc3o2)n1 (stereo not drawn)	17.7
CSCc1nc(CCNC(=O)c2cnn(C(C)C)c2)cs1	-1.66
Cc1ccc2[nH]c(C(=O)N3CCCC3Cn3cccn3)cc2c1 (stereo not drawn)	4.08
COc1cccc(S(=O)(=O)NC(=O)CC2CCCC2)c1	-3.66
COc1cc(C(=O)N(Cc2ccco2)C2CC2)cc2c1OCCO2	-0.578
CCc1ncc2c(n1)CN(CC(=O)Nc1cc(C)no1)CC2	-0.924
NC(=O)[C@@H]1Cc2ccccc2N1C(=O)C1CC(c2ccccc2)=NO1 (stereo partly drawn)	6.72
COCCN1C[C@@H]2CN(Cc3ccsc3)CCC[C@]2(C(=O)O)C1	-12.1
CCc1ncc2c(n1)CN(C(=O)CCCc1ccc(OC)cc1)C2	-6.31
O=C(N1CCOCC1)N1CCN(CC(O)c2ccc(F)cc2)CC1 (stereo not drawn)	3.33
CCc1cccc(C)c1NC(=O)C1CC(=O)N(Cc2ccccn2)C1 (stereo not drawn)	-3.75
CN(C)CCN1CCN(Cc2nccs2)Cc2cccnc21	2.78
Cc1ccc(CN2CCC3(CC2)CN(C(=O)c2cnccn2)CCO3)o1	-6.5
Cc1ccoc1-c1nnc(CN2CCn3c(nnc3C(C)C)C2)o1	-2.59
CC(C)Nc1ncnc2c1CCN(C(=O)c1ccncc1F)CC2	5.41
Cn1ccnc1-c1cccc(NC(=O)NCC(=O)NC(C)(C)C)c1	4.86
CNC(=O)[C@@H](c1ccccc1F)N1CCC[C@H]1C(=O)NC1CC1	-4.55
CC(O)c1cn(Cc2ccc(Cl)cc2)nn1 (stereo not drawn)	-6.41
O=C(NCc1cccc(F)c1)c1cccc(C(=O)N2CCCC2)n1	3.72
CSc1nccn1-c1cccc(C(=O)NCCCN2CCOCC2)c1	1.7
Cc1ccc2c(c1)C(=O)NCC1(CCN(C(=O)c3cnccn3)CC1)O2	-11
